Laboratory results taken from ChEMBL document CHEMBL5236550, “Small molecule selenium-containing compounds: Recent development and therapeutic applications” (Eur J Med Chem, 2021).
≈ marks a conversion by molar mass, not a printed value. Values belong to the molecule of their own block, whether it stands above or below them.

Columns and labels:
MCF7 [1] = assay: Anticancer activity against human MCF7 cells assessed as cell growth inhibition incubated for 72 hrs by MTT assay; assay type: functional, cell-based; conditions: MCF7, 72 h
MDA-MB-231 = assay: Anticancer activity against human MDA-MB-231 cells assessed as cell growth inhibition incubated for 72 hrs by MTT assay; assay type: functional, cell-based; conditions: MDA-MB-231, 72 h
[2] = Anticancer activity against human PMNL assessed as cell growth inhibition; assay type: functional, cell-based
MCF7 [3] = assay: Anticancer activity against human MCF7 cells assessed as cell growth inhibition incubated for 24 hrs by ELISA based CCK8 assay; assay type: functional; conditions: MCF7, 24 h
Calu-1 = assay: Anticancer activity against human HTB-54 cells assessed as cell growth inhibition incubated for 48 hrs by MTT assay; assay type: functional, cell-based; conditions: Calu-1, 48 h
NCI-H1299 = assay: Anticancer activity against human H1299 cells assessed as cell growth inhibition incubated for 48 hrs by MTT assay; assay type: functional, cell-based; conditions: NCI-H1299, 48 h
T47D = assay: Anticancer activity against human T47D cells assessed as cell growth inhibition; assay type: functional, cell-based
MCF7 [4] = assay: Anticancer activity against human MCF7 cells assessed as cell growth inhibition; assay type: functional, cell-based
Carbonic anhydrase 2 = Carbonic anhydrase 2 (Homo sapiens, UniProt P00918); assay: Inhibition of human carbonic anhydrase 2 assessed as inhibition constant
Carbonic anhydrase 1 = Carbonic anhydrase 1 (Homo sapiens, UniProt P00915); assay: Inhibition of human carbonic anhydrase 1 assessed as inhibition constant
EJ = assay: Anticancer activity against human EJ cells assessed as cell growth inhibition incubated for 72 hrs by MTT assay; assay type: functional, cell-based
SH-SY5Y = assay: Anticancer activity against human SH-SY5Y cells assessed as cell viability incubated for 24 hrs by MTT assay relative to control; assay type: functional
MCF7 [5] = assay: Anticancer activity against human MCF7 cells assessed as cell growth incubation incubated for 72 hrs by MTT assay; assay type: functional, cell-based; conditions: MCF7, 72 h
PC-3 = assay: Anticancer activity against human PC-3 cells assessed as cell growth incubation incubated for 72 hrs by MTT assay; assay type: functional, cell-based; conditions: PC-3, 72 h
Candida albicans [6] = assay: Antifungal activity against Candida albicans ATC90028 assessed as zone of inhibition; assay type: functional
Candida albicans [7] = assay: Antifungal activity against Candida albicans ATC90028 assessed as […] growth inhibition; assay type: functional
[8] = Anticancer activity against human PMNL assessed as cell growth inhibition incubated for 5 mins by luminescence reader analysis; assay type: functional, cell-based
HeLa = assay: Anticancer activity against human HeLa cells assessed as cell growth inhibition incubated for 48 hrs; assay type: functional, cell-based
HepG2 [9] = assay: Anticancer activity against human HepG2 cells assessed as cell growth inhibition incubated for 48 hrs; assay type: functional, cell-based; conditions: HepG2, 48 h
Trypanosoma cruzi = assay: Antibacterial activity against Trypanosoma cruzi Dm28c assessed as inhibition of bacterial growth incubated for 72 hrs by microplate reader analysis; assay type: functional, organism-based
Human alphaherpesvirus 1 = assay: Antiviral activity against Herpes simplex virus 1infected in A549 cells assessed as viral growth inhibition incubated for 1 hrs; assay type: functional
[10] = tested on: Encephalomyocarditis virus; assay: Antiviral activity against Encephalomyocarditis virus infected in A549 cells assessed as viral growth inhibition incubated for 1 hrs; assay type: functional, organism-based; conditions: Cardiovirus A, A549, 1 h
MCF7 [11] = assay: Anticancer activity against human MCF7 cells assessed as cell growth inhibition incubated for 48 hrs by MTT assay; assay type: functional, cell-based; conditions: MCF7, 48 h
Pichia kudriavzevii = assay: Antifungal activity against Candida krusei assessed as fungal growth inhibition incubated for 24 to 48 hrs by microdilution method; assay type: functional; conditions: time 24-48 hrs
MCF7S = assay: Anticancer activity against human MCF7S cells assessed as cell growth inhibition measured after 6 days by SRB assay; assay type: functional; conditions: time 6 day
HT-29 = assay: Anticancer activity against human HT-29 cells assessed as cell growth inhibition measured after 6 days by SRB assay; assay type: functional, cell-based; conditions: HT-29, 144 h
Plasmodium falciparum = assay: […] inhibition incubated for 72 hrs by light microscopic analysis; assay type: functional, organism-based; conditions: K-1, 72 h
A549 = assay: Anticancer activity against human A549 cells assessed as cell growth inhibition measured after 6 days by SRB assay; assay type: functional, cell-based; conditions: A549, 144 h
UACC-375 = assay: Anticancer activity against human UACC-375 cells assessed as cell growth inhibition measured after 6 days by SRB assay; assay type: functional, cell-based
DU-145 = assay: Anticancer activity against human DU-145 cells assessed as cell growth inhibition measured after 6 days by SRB assay; assay type: functional, cell-based; conditions: DU-145, 144 h
[12] = Anticancer activity against human WM35 cells assessed as cell growth inhibition incubated for 72 hrs by MTS assay; assay type: functional, cell-based; conditions: WM35, 72 h, pooled result: one value given for 4 cell lines, strains, targets or settings
[13] = Antitumor activity against human 1205Lu cells xenografted with mouse assessed as reduction in tumor volume at 0.127 uM, ip administered alternate days for 4 week relative to control; assay type: functional; design: scale not given: the % may be the effect or the level left; conditions: time 4 weeks
UACC-903 = assay: Antitumor activity against human UACC-903 cells xenografted with mouse assessed as reduction in tumor volume at 0.127 uM, ip administered alternate days for 4 week relative to control; assay type: functional; design: scale not given: the % may be the effect or the level left; conditions: time 4 weeks
A-375 = assay: Anticancer activity against human A-375 cells assessed as cell growth inhibition incubated for 72 hrs by fluorescence based MTT assay; assay type: functional; conditions: A-375, 72 h
HepG2 [14] = assay: Anticancer activity against human HepG2 cells assessed as cell growth inhibition incubated for 72 hrs by fluorescence based MTT assay; assay type: functional; conditions: HepG2, 72 h
MCF7 [15] = assay: Anticancer activity against human MCF7 cells assessed as cell growth inhibition incubated for 72 hrs by fluorescence based MTT assay; assay type: functional; conditions: MCF7, 72 h

Chain of Carbonic anhydrase 1 (P00915 whole entry): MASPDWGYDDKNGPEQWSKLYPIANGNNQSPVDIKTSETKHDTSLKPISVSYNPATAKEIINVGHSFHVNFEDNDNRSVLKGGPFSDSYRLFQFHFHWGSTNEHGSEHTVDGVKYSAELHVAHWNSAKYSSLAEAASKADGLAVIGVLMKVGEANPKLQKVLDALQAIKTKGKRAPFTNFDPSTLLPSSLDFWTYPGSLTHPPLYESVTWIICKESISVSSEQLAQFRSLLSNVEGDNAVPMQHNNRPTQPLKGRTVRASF

Compound: Brc1ccc2nc(-c3ccc4n[se]nc4c3)[nH]c2c1
- IC50 (MCF7 [1]): 15.5 µM
- IC50 (MDA-MB-231): 1.3 µM

Compound: CN(C)C(N)=[Se]
- IC50 [2]: 6.8 µM

Compound: c1ccc2[nH]c(-c3ccc4n[se]nc4c3)nc2c1
- IC50 (MCF7 [1]): 15.4 µM
- IC50 (MDA-MB-231): 12.3 µM

Compound: Cc1ccc2nc(-c3ccc4n[se]nc4c3)[nH]c2c1
- IC50 (MCF7 [1]): 4.1 µM
- IC50 (MDA-MB-231): 1 µM

Compound: Clc1ccc([Se][Se]c2ccc(Cl)nn2)nn1
- IC50 (MCF7 [3]): 10.3 µM

Compound: Cc1ccc(NC(=[Se])NC(=O)c2ccc3c(c2)OCO3)cc1
- IC50 (Calu-1): 5.9 µM
- IC50 (NCI-H1299): 1.5 µM

Compound: O=C(NC(=[Se])Nc1ccccc1)c1cccs1
- IC50 (T47D): 6.1 µM
- IC50 (MCF7 [4]): 4.2 µM

Compound: [Se]=P(c1ccccn1)(c1ccccn1)c1ccccn1
- Ki (Carbonic anhydrase 2): 0.0537 µM
- Ki (Carbonic anhydrase 1): 0.0563 µM

Compound: COc1ccc(-c2nc3ccc(-c4ccc5n[se]nc5c4)cc3[nH]2)cc1
- IC50 (EJ): 1.48 µM

Compound: C=CCn1[se]c2ccccc2c1=O
- Activity (SH-SY5Y): 86%

Compound: O=C(O)C[Se]C(=O)c1cccnc1Cl
- IC50 (MCF7 [5]): 0.003 µM
- IC50 (PC-3): 10 µM

- MIC (Candida albicans [7]): 12.5 µg/mL (≈ 26.9 µM)
Compound: O=C(C[C@@H](c1ccc(Cl)cc1)[C@@H]1CCCc2[se]nnc21)c1ccc(Cl)cc1
- inhibition zone (IZ) (Candida albicans [6]): 15 mm

Compound: Clc1ccc2nc(-c3ccc4n[se]nc4c3)[nH]c2c1
- IC50 (MCF7 [1]): 26.3 µM
- IC50 (MDA-MB-231): 2.1 µM

Compound: [Se]=C(c1ccccc1)N1CCCCC1
- IC50 [8]: 11.3 µM

- IC50 (HeLa): 3.96 µM
- IC50 (HepG2 [9]): 4.45 µM
Compound: CN(C)c1ccc(/C=C/c2c3ccccc3c(/C=C/c3ccc(OCCCCCC[Se][Se]CCCCCCOc4ccc(/C=C/c5c6ccccc6c(/C=C/c6ccc(N(C)C)cc6)c6ccccc56)cc4)cc3)c3ccccc23)cc1

Compound: CCCC/C(=N\NC(N)=[Se])c1ccc(Cl)c(Cl)c1
- IC50 (Trypanosoma cruzi): 1.2 µM

Compound: O=c1c2ccccc2[se]n1Cc1ccccc1
- MIC (Human alphaherpesvirus 1): 2 µg/mL (≈ 6.94 µM)
- IC50 [10]: 6 µg/mL (≈ 20.8 µM)

Compound: CCNCc1ccccc1[Se][Se]c1ccccc1CNCC
- IC50 (MCF7 [11]): 15 µM

Compound: Ic1ccc(-c2c[se]c(NN=C3CCSCC3)n2)cc1
- MIC (Pichia kudriavzevii): 0.98 µg/mL (≈ 2.12 µM)

Compound: FC(F)(F)c1ccc(-c2c[se]c(NN=C3CCSCC3)n2)cc1
- MIC (Pichia kudriavzevii): 0.98 µg/mL (≈ 2.42 µM)

Compound: CCOC(=O)n1[se]c2ccccc2c1=O
- MIC (Human alphaherpesvirus 1): 10 µg/mL (≈ 37 µM)
- IC50 [10]: 10 µg/mL (≈ 37 µM)

Compound: O=C(O)C[Se]C(=O)Cc1ccccc1
- IC50 (MCF7 [5]): 0.006 µM
- IC50 (PC-3): 2.9 µM

- IC50 (HT-29): 130 µM
- IC50 (A549): 65 µM
- IC50 (DU-145): 40 µM
Compound: C[Se]CC[C@H](N)C(=O)O [SELENOMETHIONINE]
- IC5 (MCF7S): 45 µM
- IC50 (Plasmodium falciparum): 45 µM
- IC50 (UACC-375; Homo sapiens, UACC-375, 144 h): 50 µM
- IC5 (UACC-375; time 6 day): 50 µM

Compound: NC(CCC(=O)NC(CS[Se]Cc1cc(-c2ccccc2)n(-c2ccc(S(N)(=O)=O)cc2)n1)C(=O)NCC(=O)O)C(=O)O (stereo not drawn)
- IC50 [12]: 7.66 µM
- Activity [13]: 70%
- Activity (UACC-903): 70%

Compound: O=c1[nH]c(=O)c2n[se]nc2[nH]1
- IC50 (A-375): 14.3 µM
- IC50 (HepG2 [14]): 19.6 µM
- IC50 (MCF7 [15]): 46 µM
